From US20060240011A1, “Use of nf-kappa b inhibitors for the treatment of mastitis” (priority 2002, published 2006)
“Also recorded” adds a separate entry of the source.

Test system: NF-κB
Experiment: NF-κB electrophoretic mobility shift assay (EMSA) on cultured, treated milk cells from chronic mastitis-affected cows
Assay type: cell-based, Holstein-Friesian cows
Conditions: protein extraction 3 hours after treatment, versus untreated cells
Method: Isolated milk cells were centrifuged for 10 minutes at 300 g and the pellet was resuspended in 600 μl lysis buffer (0.1% nonidet P-40; 10 mM Tris HCl, pH 7.4; 10 mM NaCl; 3 mM MgCl2; 1 mM EDTA; 2 mM orthovanadate; 1 mM diisopropyl fluorophosphates (DFP); 10 μg/ml leupeptin; 10 μg/ml aprotinin). The cells were vortexed 15 seconds, kept on ice for 5 minutes, and centrifuged for 10 minutes at 300 g. The resulting pellet was resuspended in a KCl buffer (10 mM Hepes, pH 7.4; 400 mM KCl; 10% Glycerol; 2 mM EDTA; 1 mM Ethylene glycol-bis[β-aminoethyl ether]-N, N,N′N′-tetraacetic acid (EGTA); 1% nonidet P-40, 1 mM dithiothreitol (DTT); 2 mM orthovanadate; 10 μg/ml leupeptin; 10 μg/ml aprotinin; 1 mM DFP) and kept at 4° C. for 10 minutes before centrifugation for 15 minutes at 12,000 g. The supernatant was diluted three times and stored at −80° C. until use.
Binding reactions were performed for 30 minutes at room temperature with 5 μg of total protein extracts in 20 mM Hepes (pH 7.9), 10 mM KCl, 0.2 mM EDTA, 20% (v/v) glycerol, 1% (w/v) acetylated bovine serum albumin, 3 μg of poly(dI-dC) (Amersham Pharmacia Biotech, Aylesbury, U.K.), 1 mM DTT (dithiothreitol), 1 mM phenylmethylsulfonyl fluoride, and 100,000 cpm of ^32P-labeled double-stranded oligonucleotide probes. Probes were prepared by annealing the appropriate single-stranded oligonucleotides (Eurogentech, Liège, Belgium) at 65° C. for 10 minutes in 10 mM Tris, 1 mM EDTA, and 10 mM NaCl, followed by slow cooling to room temperature. The probes were labeled by end-filling with the Klenow fragment of E. coli DNA polymerase I (Roche, Mannheim, Germany), with [^32P]dATP and [^32P]dCTP (Dupont-New England Nuclear, Les Ulis, Fance). Labeled probes were purified by spin chromatography on Sephadex G-25 columns (Roche). […] The amount of specific complexes was determined by photodensitometry of the autoradiography. […] The NF-κB activity was assessed by photodensitometry of the specific bands. […]

Row | Structure (SMILES) | NF-κB activity (DNA-binding activity by EMSA, photodensitometry) (gliotoxine at 1 μl/ml) | NF-κB activity (DNA-binding activity by EMSA, photodensitometry) (gliotoxine at 1 μl/ml, listed as gliotoxine) | NF-κB activity (DNA-binding activity by EMSA, photodensitometry) (15d-PGJ2 at 40 μM, 50 μM, 60 μM and 80 μM)
1 | CN1C(=O)[C@]23CC4=CC=C[C@H](O)[C@H]4N2C(=O)[C@@]1(CO)SS3 [glyotoxine, gliotoxin] | reduced NF-κB activity | inhibit NF-κB activation | 
2 | CCCCCC=CC=C1C(=O)C=C[C@@H]1CC=CCCCC(=O)O [15d-PGJ2, 15-deoxy-Δ.12,14-prostaglandin J2] |  |  | reduced NF-κB activity; also recorded: inhibit NF-κB activation
